From ChEMBL document CHEMBL4673354, “N-(Methyloxycarbonyl)thiophene sulfonamides as high affinity AT2 receptor ligands” (Bioorg Med Chem, 2021) come the findings set out here.

Series [1] in a line: Apparent permeability across apical to basolateral side and basolateral to apical side in human Caco-2 cells at 5 uM measured up to 60 mins by LC-MS/MS analysis. It is filed as ADME, cell-based. For orientation: Caco-2 cells form a polarised layer with tight junctions and transporters.
Series [2] in a line: Oral bioavailability in rat. Conditions: in vivo. It is filed as ADME, organism-based.

Consider `COc1ccc2c(c1OCc1ccccc1)C[C@@H](C(=O)O)N(C(=O)C(c1ccccc1)c1ccccc1)C2` [OLODANRIGAN], for which the apparent permeability coefficient (Papp) at 1 h, 5 µM in series [1] is 1.8 ×10⁻⁶ cm/s.

As for `CCCCOC(=O)NS(=O)(=O)c1sc(CC(C)C)cc1-c1cccc(Cn2ccnc2)c1`, the apparent permeability coefficient (Papp) at 1 h, 5 µM in series [1] was 3.4 ×10⁻⁶ cm/s.

Turning to `CCCCOC(=O)NS(=O)(=O)c1sc(CC(C)C)cc1-c1cccc(C(=O)Cn2cnc3cc(C)c(C)cc32)c1`, the Papp at 1 h, 5 µM in series [1] came to 0.4 ×10⁻⁶ cm/s.

`COc1ccc2c(c1OCc1ccccc1)CC(C(=O)O)N(C(=O)C(c1ccccc1)c1ccccc1)C2` (centres undefined) gave a bioavailability in series [2] of 33%.

As a reminder, the Papp is a coefficient for how fast a substance crosses the barrier. By bioavailability is commonly meant dose-corrected exposure relative to a reference, in per cent. The low end stands for little systemic uptake, the high end for much systemic uptake.
